Read-outs that look alike come from different tables or passages of the source.
Columns and labels:
[1] = system: HBV; experiment: In vitro antiviral assay for HBV (Table 1); type: cell-based, Hepatitis B virus; conditions: Hepatitis B virus, read-out: Antiviral Activities (EC50, μM) HBV
[2] = system: EBV; experiment: In vitro antiviral assay for EBV; type: cell-based, Epstein-Barr Virus; conditions: human gammaherpesvirus 4, read-out: Antiviral Activities (EC50, μM) EBV
Outline: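 Performed according to previously reported procedures for each virus; no further conditions are given for the HSV-2, CMV, HIV or EBV assays.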

[3] = system: HepG2 cells; experiment: Cell cytotoxicity assay on HepG2 cells, methylene blue staining; type: cell-based; conditions: Homo sapiens, 72 h, concentration that inhibited 50% of cell growth, 3 days
Method: Cytotoxicities of test compounds on MT-2 (Mellors et al., 1992 Mol. Pharmacol. 41:446-451) and CEM (Grove et al., 1995, Cancer Res. 55:3008-3011) cells were determined according to the previously reported procedures. Hepg2 cells were seeded at a density of 10^4 cells/ml/well in 24-well plates and cultured in MEME supplemented with 10% FBS at 37° C. and 5% CO2. Each test compound at different concentrations was added on the second day of the culture and the cells were incubated for another 3 days. At the end of the incubation period, the medium was removed and 0.5 ml of 0.5% methylene blue in 50% ethanol (v/v) was added to each well and set at room temperature for 30-60 minutes. The methylene blue was removed; the plates were washed with water and allowed to air dry. Once dry, 1% sarcosyl was added to dissolve the stained cell layer. The absorbance at 595 nm was measured with a microplate reader (Molecular Devices Corp. Sunnyvale, Calif.). The cytotoxicity to CEM cell was calculated as described previously (Grove et al., 1995, Cancer Res. 55 (14): 3008-3011).

[4] = system: HBV 3.5 kb, 2.4/2.1 kb transcripts; experiment: HBV RNA in HepG2.2.15 cells, Northern blot hybridization; type: cell-based, Hepatitis B virus; conditions: for EC50: Hepatitis B virus, 144 h, read-out: EC50 for the 3.5 kb transcript
Method: Southern blot hybridization was used to measure the effects of compounds on HBV DNA. Total DNA from cells was extracted using Dneasy Tissue kit (Qiagen Inc. Valencia, Calif.) and separated on a 0.8% agarose gel. Separated DNA was transferred to a Hybond-N+membrane (Amersham Pharmacia Biotech Inc. Piscataway, N.J.). Inhibition of viral DNA replication was assessed by comparison of the replicative HBV DNA from drug-treated versus untreated cultures using hybridization of the membrane with a [α-^32P] dCTP labeled whole HBV DNA probe followed by autoradiography. Quantitative densitometry was performed on a Molecular Dynamics Densitometer (Amersham Pharmacia Biotech Inc. Piscataway, N.J.) using ImageQuaNT image analysis software. The integrated HBV genome was used as the internal control to normalize the amount of DNA loaded. Northern blot hybridization was used to measure the effects of the compounds on HBV RNA. Total intracellular RNA was extracted from cells using Rneasy kit (Qiagen Inc. Valencia, Calif.). RNA was separated in a 1.2% formaldehyde agarose gel and transferred to a Hybond-N+ membrane (Amersham Pharmacia Biotech Inc. Piscataway, N.J.). The membrane was hybridized with the same probe mentioned above at 65° C. followed by autoradiography. GAPDH RNA level was used as an internal control to normalize the amount of RNA loaded. The decrease of HBV core protein expression was assessed by western blot. A cellular crude extract of […] cells was separated on a 12% SDS-PAGE gel and transferred onto a nitrocellulose membrane (Bio-rad Laboratories, Hercules, Calif.). Anti-HBV core antibody (DAKO Corp. Carpinteria, Calif.) and anti rabbit IgG secondary antibody (Sigma. St. Louis, Mo.) were added. Actin protein level was used as the internal control.
Since helioxanthin and its derivatives are a unique class of chemical with anti-HBV activity, the mechanism of HBV inhibition was examined by first assessing their impact on HBV mRNA. The HepG2.2.15 cells treated with these two drugs for 6 days, then a Northern blot analysis on the total cellular RNA was performed with a HBV specific [α-^32P] dCTP labeled probe. […] Lamivudine had no effect on HBV RNA level.

[5] = HepG2.2.15 cells, 6 days, Northern blot

## O=C1OCc2c1cc1ccc3c(c1c2-c1ccc2c(c1)OCO2)OCO3 [Compound 2, 10-Benzo[1,3]dioxol-5-yl-9H-furo[3′,4′:6,7]naphtho[1,2-d][1,3]dioxol-7-one, reference compound]
[1]
  EC50: 1 µM
[2]
  EC50: > 20 µM
[3]
  IC50: 6 µM
[4]; HepG2.2.15 cells, 6 days, Northern blot, listed as helioxanthin
  effect on HBV 3.5 kb, 2.4/2.1 kb transcripts (HBV RNA level): decreased 3.5 kb, 2.4/2.1 kb HBV transcripts in a dose-dependent manner
[4]; [5]
  EC50: 0.09 µM

## Nc1ccn([C@@H]2CS[C@H](CO)O2)c(=O)n1 [Compound 3TC, (−)-(2R,5S)-1-[2-(hydroxymethyl)oxathiolan-5-yl]cytosine]
[1]
  EC50: 0.02 µM
[2]
  EC50: 0.4 µM
[3]
  IC50: > 100 µM
[4]
  effect on HBV 3.5 kb, 2.4/2.1 kb transcripts (HBV RNA level): no effect

## COc1ccc(-c2c3c(cc4ccc5c(c24)OCO5)C(=O)NC3)cc1OC [Compound 22, 10-(3,4-Dimethoxy-phenyl)-8,9-dihydro-1,3-dioxa-8-aza-dicyclopenta[a,g]naphthalen-7-one]
[1]
  EC50: 0.9 µM
[2]
  EC50: > 20 µM
[3]
  IC50: 2 µM
[4]; [5]
  effect on HBV 3.5 kb, 2.4/2.1 kb transcripts (HBV RNA level): decreased 3.5 kb, 2.4/2.1 kb HBV transcripts in a dose-dependent manner
  EC50: 1 µM
